A value given as a limit tells only on which side of the number the result lay.

The assay deals with NLRP3 inflammasome pathway. In words: NLRP3 inflammasome pathway activation assay, MSU stimulation, IL-1β release (AlphaLISA). The assay is classed as cell-based. The note with it: PMA-differentiated, LPS-primed human monocyte-like cells, MSU 150 µg/ml for 3 h. Here is the method: The following assays were used to determine the inhibitory activity of test compounds on the NLRP3 inflammasome pathway using common stimuli Nigericin (Invivogen) or monosodium urate crystals (MSU) (Invivogen).
Human monocyte-like cells were cultured in RPMI-1640 Glutamax medium supplemented with 10% heat inactivated FCS and 50 U/ml penicillin-streptomycin (Life Technologies).
Human monocyte-like cells were seeded at 75000 per well in a 96-well plate and were differentiated overnight into macrophages with 10 ng/ml PMA (Phorbol Myristate Acetate). The following day, medium containing 10 ng/ml LPS (Lipopolysaccharide) were added. After 3 hours of LPS priming, concentrations of test compound in the range from 100 µM to 6 nM were added 30 min prior to NLRP3 inflammasome pathway stimulation with Nigericin 3.75 µM or MSU 150 µg/ml for 3 h.
For IL-1β quantification, supernatants were analyzed using AlphaLISA kits according to the manufacturer’s instructions (Perkin Elmer AlphaLISA AL220F). Briefly, in a 384-well OptiPlate™ microplate, 5 µl of sample was mixed, with 20 µl of AlphaLISA Anti-Analyte Acceptor beads (10 µg/mL final) and Biotinylated Antibody Anti-Analyte (1 nM final). Then, incubated 60 minutes at RT, then 25 µL of 2X SA-Donor beads (40 µg/mL final) were added and incubated 30 minutes at RT in the dark. Reading was done using an EnVision-Alpha Reader (PerkinElmer).
IC50(concentration corresponding to 50% inhibition) were determined using GraphPad Prism 8.
By IC50 is commonly meant the concentration at which inhibition is half-maximal. A higher IC50 goes with weaker potency. As to `CCCCOC(=O)C1(c2cc(C(C)(C)O)on2)CN=C(Nc2c3c(cc4c2CCC4)CCC3)O1` (racemic) [Example 76, butyl 2-((1,2,3,5,6,7-hexahydro-s-indacen-4-yl)amino)-5-(5-(2-hydroxypropan-2-yl)isoxazol-3-yl)-4,5-dihydrooxazole-5-carboxylate], the IC50 was below 1000 nM. `CCOC(=O)C1(c2ccn(C(C)C)n2)CN=C(Nc2c3c(cc4c2CCC4)CCC3)O1` (racemic) [Example 54, ethyl 2-((1,2,3,5,6,7-hexahydro-s-indacen-4-yl)amino)-5-(1-isopropyl-1 H-pyrazol-3-yl)-4,5-dihydrooxazole-5-carboxylate] gave an IC50 below 1000 nM. The figure for `O=C(O)C1(c2ccccn2)CN=C(Nc2c3c(cc4c2CCC4)CCC3)O1` (stereo not shown) [Example 25, 2-((1,2,3,5,6,7-hexahydro-s-indacen-4-yl)amino)-5-(pyridin-2-yl)-4,5-dihydrooxazole-5-carboxylic acid] is 1000 to 10000 nM. The figure for `CCOC(=O)C1(c2ccon2)CN=C(Nc2c3c(cc4c2CCC4)CCC3)O1` (racemic) [Example 21B, ethyl 2-((1,2,3,5,6,7-hexahydro-s-indacen-4-yl)amino)-5-(isoxazol-3-yl)-4,5-dihydrooxazole-5-carboxylate] is below 1000 nM; for `CCOC(=O)C1(c2ccns2)CN=C(Nc2c3c(cc4c2CCC4)CCC3)O1` (single isomer, unassigned) [Example 43, ethyl 2-((1,2,3,5,6,7-hexahydro-s-indacen-4-yl)amino)-5-(isothiazol-5-yl)-4,5-dihydrooxazole-5-carboxylate] it is below 1000 nM. `CCOC(=O)C1(c2cnc(OC)nc2)CN=C(Nc2c3c(cc4c2CCC4)CCC3)O1` (racemic) [Example 32, ethyl 2-((1,2,3,5,6,7-hexahydro-s-indacen-4-yl)amino)-5-(2-methoxypyrimidin-5-yl)-4,5-dihydrooxazole-5-carboxylate]: the half-inhibitory concentration (IC50) is below 1000 nM. The figure for `CC(C)(C)OC(=O)C1(c2cc(C(C)(C)O)on2)CN=C(Nc2c3c(cc4c2CCC4)CCC3)O1` (racemic) [Example 82, tert-butyl 2-((1,2,3,5,6,7-hexahydro-s-indacen-4-yl)amino)-5-(5-(2-hydroxypropan-2-yl)isoxazol-3-yl)-4,5-dihydrooxazole-5-carboxylate] is below 1000 nM; for `COC(=O)C1(c2ccon2)CN=C(Nc2c3c(cc4c2CCC4)CCC3)O1` (racemic) [Example 84, methyl 2-((1,2,3,5,6,7-hexahydro-s-indacen-4-yl)amino)-5-(isoxazol-3-yl)-4,5-dihydrooxazole-5-carboxylate] it is below 1000 nM; for `CCOC(=O)C1(c2nccn2C)CN=C(Nc2c3c(c(F)c4c2CCC4)CCC3)O1` (racemic) [Example 37, ethyl 2-((8-fluoro-1,2,3,5,6,7-hexahydro-s-indacen-4-yl)amino)-5-(1-methyl-1H-imidazol-2-yl)-4,5-dihydrooxazole-5-carboxylate] it is below 1000 nM.

`COC(=O)C1(c2cc(C(C)(C)O)on2)CN=C(Nc2c3c(cc4c2CCC4)CCC3)O1` (single isomer, unassigned) [Example 72, methyl 2-((1,2,3,5,6,7-hexahydro-s-indacen-4-yl)amino)-5-(5-(2-hydroxypropan-2-yl)isoxazol-3-yl)-4,5-dihydrooxazole-5-carboxylate] had a half-maximal inhibitory concentration (IC50) below 1000 nM. The figure for `CCOC(=O)C1(c2cnccn2)CN=C(Nc2c3c(cc4c2CCC4)CCC3)O1` (racemic) [Example 49, ethyl 2-((1,2,3,5,6,7-hexahydro-s-indacen-4-yl)amino)-5-(pyrazin-2-yl)-4,5-dihydrooxazole-5-carboxylate] is below 1000 nM; for `CC(C)(C)OC(=O)C1(c2ccon2)CN=C(Nc2c3c(cc4c2CCC4)CCC3)O1` (racemic) [Example 60, tert-butyl 2-((1,2,3,5,6,7-hexahydro-s-indacen-4-yl)amino)-5-(isoxazol-3-yl)-4,5-dihydrooxazole-5-carboxylate] it is below 1000 nM. In turn, `CCCOC(=O)C1(c2cc(C(C)(C)O)on2)CN=C(Nc2c3c(cc4c2CCC4)CCC3)O1` (racemic) [Example 74, propyl 2-((1,2,3,5,6,7-hexahydro-s-indacen-4-yl)amino)-5-(5-(2-hydroxypropan-2-yl)isoxazol-3-yl)-4,5-dihydrooxazole-5-carboxylate] registered a concentration for half-maximal inhibition (IC50) below 1000 nM.

`CCOC(=O)C1(c2cc(C(C)C)on2)CN=C(Nc2c3c(cc4c2CCC4)CCC3)O1` (racemic) [Example 21A, ethyl 2-((1,2,3,5,6,7-hexahydro-s-indacen-4-yl)amino)-5-(5-isopropylisoxazol-3-yl)-4,5-dihydrooxazole-5-carboxylate] showed an IC50 below 1000 nM.

For `CC(C)OC(=O)C1(c2cc(C(C)(C)O)on2)CN=C(Nc2c3c(cc4c2CCC4)CCC3)O1` (racemic) [Example 17, isopropyl 2-((1,2,3,5,6,7-hexahydro-s-indacen-4-yl)amino)-5-(5-(2-hydroxypropan-2-yl)isoxazol-3-yl)-4,5-dihydrooxazole-5-carboxylate], the IC50 is below 1000 nM. Regarding `CCOC(=O)C1(C2CCCO2)CN=C(Nc2c3c(cc4c2CCC4)CCC3)O1` (racemic) [Example 40, ethyl 2-((1,2,3,5,6,7-hexahydro-s-indacen-4-yl)amino)-5-(tetrahydrofuran-2-yl)-4,5-dihydrooxazole-5-carboxylate], the IC50 was below 1000 nM. The molecule `CCOC(=O)C1(c2ccno2)CN=C(Nc2c3c(cc4c2CCC4)CCC3)O1` (racemic) [Example 44, ethyl 2-((1,2,3,5,6,7-hexahydro-s-indacen-4-yl)amino)-5-(isoxazol-5-yl)-4,5-dihydrooxazole-5-carboxylate] yielded an IC50 below 1000 nM. The result for `CC(C)(O)c1cc(C2(C(=O)OC3CCCC3)CN=C(Nc3c4c(cc5c3CCC5)CCC4)O2)no1` (racemic) [Example 19, cyclopentyl 2-((1,2,3,5,6,7-hexahydro-s-indacen-4-yl)amino)-5-(5-(2-hydroxypropan-2-yl)isoxazol-3-yl)-4,5-dihydrooxazole-5-carboxylate] reads below 1000 nM. The result for `O=C(OC1CCCC1)C1(c2ccon2)CN=C(Nc2c3c(cc4c2CCC4)CCC3)O1` (stereo not shown) [Example 57, Cyclopentyl 2-((1,2,3,5,6,7-hexahvdro-s-indacen-4-vl)amino)-5-(isoxazol-3-vl)-4,5-dihvdrooxazole-5-carboxylate] reads below 1000 nM; that for `CCCOC(=O)C1(c2nccs2)CN=C(Nc2c3c(cc4c2CCC4)CCC3)O1` (racemic) [Example 65, propyl 2-((1,2,3,5,6,7-hexahydro-s-indacen-4-yl)amino)-5-(thiazol-2-yl)-4,5-dihydrooxazole-5-carboxylate], below 1000 nM; that for `CCOC(=O)C1(c2cc(C(C)(C)O)on2)OC(Nc2c3c(cc4c2CCC4)CCC3)=NC1CC` (stereo not shown) [Example 51, ethyl 4-ethyl-2-((1,2,3,5,6,7-hexahydro-s-indacen-4-yl)amino)-5-(5-(2-hydroxypropan-2-yl)isoxazol-3-yl)-4,5-dihydrooxazole-5-carboxylate], 1000 to 10000 nM. `CCOC(=O)C1(c2nccs2)CN=C(Nc2c3c(cc4c2CCC4)CCC3)O1` (single isomer, unassigned) [Example 21, ethyl 2-((1,2,3,5,6,7-hexahydro-s-indacen-4-yl)amino)-5-(thiazol-2-yl)-4,5-dihydrooxazole-5-carboxylate] came in with an IC50 below 1000 nM. The figure for `COC(=O)C1(c2cc(OC)on2)CN=C(Nc2c3c(cc4c2CCC4)CCC3)O1` (racemic) [Example 48, methyl 2-((1,2,3,5,6,7-hexahydro-s-indacen-4-yl)amino)-5-(5-methoxyisoxazol-3-yl)-4,5-dihydrooxazole-5-carboxylate] is below 1000 nM; for `O=C(O)C1(c2cccnc2)CN=C(Nc2c3c(cc4c2CCC4)CCC3)O1` (stereo not shown) [Example 26, 2-((1,2,3,5,6,7-hexahydro-s-indacen-4-yl)amino)-5-(pyridin-3-yl)-4,5-dihydrooxazole-5-carboxylic acid] it is 1000 to 10000 nM.

`CCCCOC(=O)C1(c2nccs2)CN=C(Nc2c3c(cc4c2CCC4)CCC3)O1` (racemic) [Example 67, butyl 2-((1,2,3,5,6,7-hexahydro-s-indacen-4-yl)amino)-5-(thiazol-2-yl)-4,5-dihydrooxazole-5-carboxylate] returned an IC50 below 1000 nM.

With `CCOC(=O)C1(c2cccs2)CN=C(Nc2c3c(cc4c2CCC4)CCC3)O1` (racemic) [Example 34, ethyl 2-((1,2,3,5,6,7-hexahydro-s-indacen-4-yl)amino)-5-(thiophen-2-yl)-4,5-dihydrooxazole-5-carboxylate], the 50% inhibitory concentration (IC50) lay within 1000 to 10000 nM.

In turn, `CCOC(=O)C1(c2ccco2)CN=C(Nc2c3c(cc4c2CCC4)CCC3)O1` (racemic) [Example 36, ethyl 5-(furan-2-yl)-2-((1,2,3,5,6,7-hexahydro-s-indacen-4-yl)amino)-4,5-dihydrooxazole-5-carboxylate] yielded an IC50 of 1000 to 10000 nM. Molecule `CC(C)c1cc(C2(C(=O)O)CN=C(Nc3c4c(cc5c3CCC5)CCC4)O2)no1` (racemic) [Example 27, 2-((1,2,3,5,6,7-hexahydro-s-indacen-4-yl)amino)-5-(5-isopropylisoxazol-3-yl)-4,5-dihydrooxazole-5-carboxylate] showed a half-maximal inhibitory concentration (IC50) of 1000 to 10000 nM.

The values above are taken from patent US20230250070A1, “DIHYDROOXAZOLE AND THIOUREA DERIVATIVES MODULATING THE NLRP3 INFLAMMASOME PATHWAY” (AC IMMUNE SA, priority 2020, published 2023).
